Measured values from patent publication US9951089B2, “Methods of treating a fatty acid amide hydrolase-mediated condition” (INFINITY PHARMACEUTICALS, INC., priority 2010, dated 2018).

Molecular target: T1, rat FAAH (Rattus norvegicus, UniProt P97612)
T1 construct: encoding for amino acids 32-579 and an N-terminal His-tag; His-tag (N); made in house; host or cells: E. coli BL21 (DE3)
T1 sequence (P97612 32-579): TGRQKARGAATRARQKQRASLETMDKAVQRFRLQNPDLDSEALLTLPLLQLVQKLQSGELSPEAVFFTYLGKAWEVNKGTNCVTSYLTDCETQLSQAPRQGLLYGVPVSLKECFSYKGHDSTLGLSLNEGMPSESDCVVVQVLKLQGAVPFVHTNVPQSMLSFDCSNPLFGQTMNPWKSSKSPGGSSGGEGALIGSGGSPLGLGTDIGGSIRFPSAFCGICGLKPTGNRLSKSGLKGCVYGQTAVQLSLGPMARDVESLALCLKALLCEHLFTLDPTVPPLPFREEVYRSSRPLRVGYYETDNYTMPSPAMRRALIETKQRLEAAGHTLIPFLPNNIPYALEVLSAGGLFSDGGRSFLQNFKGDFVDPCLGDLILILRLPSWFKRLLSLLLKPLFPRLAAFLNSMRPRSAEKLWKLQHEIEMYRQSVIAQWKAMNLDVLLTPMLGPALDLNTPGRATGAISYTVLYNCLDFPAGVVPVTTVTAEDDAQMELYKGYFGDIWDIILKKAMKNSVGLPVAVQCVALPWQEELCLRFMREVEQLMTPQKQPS
Assay: Ki determination, rat FAAH (AMC-arachidonoyl amide hydrolysis, fluorescence end point)
Format: biochemical
Conditions: rFAAH 6 nM, substrate 20 μM, 30 min preincubation, 4 hours at room temperature
Description: An N-terminal transmembrane domain deleted rat FAAH (rFAAH) was cloned as described in Patricelli et al., Biochemistry (1998) 37:15177-15187, encoding for amino acids 32-579 and an N-terminal His-tag, herein referred to as rFAAH. E. coli BL21 (DE3) were transformed according to manufacturer protocols (Invitrogen) and rFAAH was expressed and purified from a modified procedure described in Patricelli et al., 1998.
Briefly, 8 L of cells were cultured to an OD600nm of 0.6 at 37° C., and FAAH expression induced by 1 mM IPTG, followed by 4 hours of growth. Cells were pelleted by centrifugation at 5000×g to generate the cell paste. […]
Soluble rFAAH was purified from the supernatant using nickel (Ni), heparin and size exclusion chromatography (SEC) columns. […] Eluted samples were pooled, concentrated to ˜5 mg/mL and final rFAAH concentrations determined by measuring the absorbance at 280 nm, using an extinction coefficient of ϵ=60850 M^−1 cm^−1. […]
The Ki of a test compound was determined for rat and human FAAH by measuring the dose dependent inhibition of AMC-Arachidonoyl amide hydrolysis as an end point read. Assays were carried out in Corning COSTAR® 384 well flat black bottom microtiter plates (Catalog #3654) and monitored in an Envision 2100 multilabel plate reader (Perkin Elmer-Wallac), with a 355 nm (40 nm band pass) excitation filter and 460 nm (25 nm bandpass) emission filter. […]

- Ki: 5.1 nM
SMILES: OB(O)c1ccc(-c2ccc(B(O)O)c(F)c2)cc1F [IMP-4]
